Source: US20240058324A1, “COMPOSITION FOR PREVENTION AND TREATING DEMENTIA THROUGH THE COMBINATION OF PDE5 INHIBITORS AND GLUCOCORTICOID RECEPTOR ANTAGONISTS” (ARIBIO CO., LTD., priority 2021, published 2024)

Experiments:
Aβ42 = assay: Amyloid Beta 42 Human ELISA, amount of Aβ42 in RA-differentiated SH-SY5Y cells treated with Aβ1-42 oligomer; format: cell-based; conditions: 24 h
Method: To determine the amount of change in amyloid beta, […] cells were dispensed into T-25 flask.
For cell adhesion and stabilization, cells were incubated for 24 hours in DMEM/F12 Complete Medium (HyClone) containing 10% FBS (HyClone) and 1% P/S (HyClone) at 37° C. under 5% CO2 condition in a CO2 incubator (Thermo Fisher Scientific Forma).
After 24 hours of cell dispensing, the cell culture medium is removed for neuron-like differentiation, and replaced with DMEM/F12 differentiation media containing 1% FBS (HyClone), 1% P/S (HyClone), 10 μM all-trans-retinoic acid (RA; Sigma--Aldrich, St. Louis, MO, USA).
On the third day of differentiation, the medium was replaced with a new DMEM/F12 differentiation medium. On the sixth day of differentiation, the medium of the untreated control group was replaced with a new DMEM/F12 differentiation medium and the medium of the sample treatment group was replaced with a various conditions by adding a new DMEM/F12 differentiation medium under various conditions.
Human Aβ1-42 (Abeam, Cambridge, MA, USA) was added upto 10 μM to DMEM/F12 Complete Medium (HyClone) containing 1% FBS (HyClone) and 1% P/S (HyClone) to form Aβ1-42 oligomer and left for 3 hours in a CO2 incubator (Thermo Fisher Scientific Forma) under 37° C. and 5% CO2 conditions to form Aβ1-42 oligomer.
In order to confirm the Aβ 1-42 change, the existing cell culture medium was removed from the RA-differentiated SH-SY5Y neuron-like cells, replaced with DMEM/F12 Complete Medium (HyClone) containing Aβ1-42 oligomer ([…] Fisher Scientific Forma) at 37° C. under 5% CO2 conditions to induce Aβ1-42 oligomer-induced cell damage.
In order to measure the amount of Aβ42 (pg/mL) in the cell, the cells were recovered and treated with the cell lysis buffer.
Thereafter, after centrifugation at 14,000 rpm 4° C. for 10 minutes, the supernatant was transferred to recover the protein. The amount of protein was quantified using the Pierce™ BCA Protein Assay Kit (Thermo Fisher Scientific). Then, the amount of Aβ42 in cells was measured using a Human Aβ42 ELISA Kit (Invitrogen).

TNF-α = assay: Real time RT-qPCR of pro-inflammatory cytokine TNF-α in LPS-treated IMG microglia cells; format: cell-based, mouse; conditions: LPS 100 ng/ml
Method: (§1) The IMG cells, a mouse microglia cell line used in the experiments, were cultured, and maintained in DMEM complete medium (HyClone) containing 10% fetal bovine serum (FBS; Australian Orgin, HyClone, Logan, UT, USA) and 1% penicillin/streptomycin (P/S; HyClone) at 37° C. with 5% CO2 in a humidified CO2 incubator (311-TIF, Thermo Fisher Scientific Forma, MA, USA). Total 2×10^5 cells were seeded in each well of the 6-well plate and they were incubated for 24 h in the humidified CO2 incubator as mentioned above. Further, 100 ng/ml of LPS and the drugs, AR1001 2 μM and GR modulator (CORT-108297) 6, 12, 24, 36, 48 μM were treated individually or in combination.
(§2) The cells were scraped using a cell scraper, and 2 mL of the culture solution was collected in a 15 mL conical tube, It was centrifuged at 3,000 RPM for 5 min and the supernatant (culture solution) was discarded. The pellet was resuspended in 1 mL of Trizol and it was transferred to 1.5 mL microfuge tube. Further, 0.2 mL of chloroform was added and it was vortexed for 1 min. The microfuge tube was kept in a stand for 2 min at room temperature. After centrifugation at 12,000×g for 10 min at 4° C., the supernatant (approx 500 μL) separated in a fresh microfuge tube. Equal volume of isopropanol was added to the supernatant and mixed the solution well. It was put in the microfuge tube stand for 10 min at room temperature and thereafter, centrifuged at 12,000×g for 10 min at 4° C. The supernatant was discarded and the pellet was washed twice with 75% ethanol. The RNA pellet was dried and dissolved in 10 μL DEPC treated water. After quantification of the RNA, it was converted to cDNA following the PrimeScript™ II 1st strand cDNA Synthesis Kit (Takara) protocol.
(§3) The sample cDNAs were amplified with gene specific primers and SYBR green PCR master mix (ThermoFisher) in the model Quant Studio 5 Thermal cycler (Applied biosystems). The amplification conditions were as follows—polymerase activation at 50° C. for 2 min, predenaturation preceding at 95° C. for 10 min, total 40 cycles of denaturation at 95° C. for 15 sec, annealing at 60° C. for 30 sec and extension at 72° C. for 30 sec. The specific primer sequences are mentioned in Table-1.

IL-1β = assay: Real time RT-qPCR of pro-inflammatory cytokine IL-1β in LPS-treated IMG microglia cells; format: cell-based, mouse; conditions: LPS 100 ng/ml
Method: as §1, §2, §3

[1] = CORT-108297 0.1 μM alone, SH-SY5Y, Aβ 10 μM
[2] = CORT-108297 0.3 μM alone, SH-SY5Y, Aβ 10 μM
[3] = CORT-108297 0.6 μM alone, SH-SY5Y, Aβ 10 μM
[4] = CORT-108297 1.2 μM alone, SH-SY5Y, Aβ 10 μM
[5] = CORT-108297 1.8 μM alone, SH-SY5Y, Aβ 10 μM
[6] = CORT-108297 2.4 μM alone, SH-SY5Y, Aβ 10 μM
[7] = CORT-108297 3.0 μM alone, SH-SY5Y, Aβ 10 μM

SMILES: CCOC[C@]12Cc3cnn(-c4ccc(F)cc4)c3C=C1CCN(S(=O)(=O)c1ccc(C(F)(F)F)cc1)C2 [CORT-108297]
- Aβ42 Reduction rate Average reduction rate (Aβ42; [1]): 4.26%
- Aβ42 concentration Average concentration (Aβ42; [1]): 45.40 pg/mL
- Aβ42 Reduction rate Average reduction rate (Aβ42; [2]): 4.24%
- Aβ42 concentration Average concentration (Aβ42; [2]): 45.40 pg/mL
- Aβ42 Reduction rate Average reduction rate (Aβ42; [3]): 6.88%
- Aβ42 concentration Average concentration (Aβ42; [3]): 44.29 pg/mL
- Aβ42 Reduction rate Average reduction rate (Aβ42; [4]): 9.34%
- Aβ42 concentration Average concentration (Aβ42; [4]): 43.25 pg/mL
- Aβ42 Reduction rate Average reduction rate (Aβ42; [5]): 11.97%
- Aβ42 concentration Average concentration (Aβ42; [5]): 42.14 pg/mL
- Aβ42 Reduction rate Average reduction rate (Aβ42; [6]): 17.91%
- Aβ42 concentration Average concentration (Aβ42; [6]): 39.64 pg/mL
- Aβ42 Reduction rate Average reduction rate (Aβ42; [7]): 31.34%
- Aβ42 concentration Average concentration (Aβ42; [7]): 33.97 pg/mL
- TNFα Reduction (%) (TNF-α; CORT-108297 6 μM alone): 9.41%
- TNFα Reduction (%) (TNF-α; CORT-108297 12 μM alone): 15.52%
- TNFα Reduction (%) (TNF-α; CORT-108297 24 μM alone): 23.86%
- TNFα Reduction (%) (TNF-α; CORT-108297 36 μM alone): 37.30%
- TNFα Reduction (%) (TNF-α; CORT-108297 48 μM alone): 52.51%
- IL1β Reduction (%) (IL-1β; CORT-108297 6 μM alone): 7.02%
- IL1β Reduction (%) (IL-1β; CORT-108297 12 μM alone): 8.38%
- IL1β Reduction (%) (IL-1β; CORT-108297 24 μM alone): 17.88%
- IL1β Reduction (%) (IL-1β; CORT-108297 36 μM alone): 35.86%
- IL1β Reduction (%) (IL-1β; CORT-108297 48 μM alone): 57.37%

SMILES: CCCOc1ccc(S(=O)(=O)N2CCN(CCO)CC2)cc1-c1nc2c(CCC)cn(CC)c2c(=O)[nH]1 [AR1001, mirodenafil]
- Aβ42 concentration Average concentration (Aβ42; AR1001 0.1 μM alone, SH-SY5Y neuron-like cells, Aβ1-42 oligomer 10 μM): 46.45 pg/mL
- Aβ42 Reduction rate Average reduction rate (Aβ42; AR1001 0.1 μM alone, SH-SY5Y, Aβ 10 μM): 1.77%
- TNFα Reduction (%) (TNF-α; AR1001 2 μM alone): 8.58%
- IL1β Reduction (%) (IL-1β; AR1001 2 μM alone): 4.70%
